Consider three compounds from patent US20100029544A1, “Composition” (priority 2006, published 2010).

In brackets after ≈: the same amount, converted by molar mass.

As a reminder, the solubility is the dissolved amount per volume that the medium holds.

In data set [1] the test system is Caco-2 cells. As to the kind of experiment: Intracellular localisation study (PK4 fluorescence microscopy). Conditions: PK4 20 μM alone, 37° C. It is filed as cell-based, human. An excerpt: The intracellular polymer uptake was studied using an experimental anticancer drug named PK4 (bis-naphthalimidopropyl spermine). […] Due to the inherent fluorescence of PK4, the uptake of PK4 into cells can be visualised using Fluorescence Microscopy. Caco-2 cells (human colorectal cancer cells) were maintained in Dulbecco's Modified Eagle's Medium (DMEM) supplemented with 10% foetal calf serum (FCS), 1% non-essential amino acids and 1% L-glutamine and 1% penicillin/streptomycin at 10% CO2, 95% humidity and 37° C. […] The controls were 1) polymer only solutions (0.1 μml^−1), 2) PK4 only solutions (20 μM) and 3) medium. At specific time intervals the cells were photographed using a Leica DMRB fluorescence microscopy (Leica Microsystems, UK). The experiment above was repeated with the cells incubated at 4° C. instead of 37° C.

Data set [2] can be described thus: Loading of griseofulvin into QCPAA aggregates (solubilisation). The data set is classed as physicochemical. To be noted: thermodynamic from solid; excess drug sonicated in distilled water, filtered; read-out: intrinsic (aqueous) solubility of griseofulvin. The protocol: Drug loading was then achieved by probe sonication of the drugs in the presence of polymer aggregates in distilled water. Polymer, drug solutions with varying polymer: drug weight ratios were prepared. […] The aqueous solubility of griseofulvin was determined by sonicating excess drugs in distilled water. The solution was then filtered and analysed as described earlier. A griseofulvin calibration curve was prepared using various standard solutions (1-30 μgml^−1, R^2=0.993).

The nature of data set [3]: Loading of propofol into QCPAA or CePAA (solubilisation). The protocol:
Drug loading was carried out as described above. To determine the concentration of encapsulated drug, the solutions were filtered (0.45 μm) and the filtrates were dissolved in methanol and subsequently analysed using an ultraviolet-visible spectrophotometer at the wavelength of 272 nm. A propofol calibration graph was prepared using various standard solutions (0.012-0.16 mgml^−1, R^2=0.998). The filtered formulations were sized using photon correlation spectroscopy and imaged by scanning electron microscopy (SEM).

Take `O=C1c2cccc3cccc(c23)C(=O)N1CCCNCCCNCCCCNCCCNCCCN1C(=O)c2cccc3cccc(c23)C1=O` [PK4, bis-naphthalimidopropyl spermine]: the “time until fluorescence was detected in cells” value in data set [1] is on record as 4.5 h.

For the compound `COC1=CC(=O)C[C@@H](C)[C@]12Oc1c(Cl)c(OC)cc(OC)c1C2=O` [griseofulvin], the solubility in data set [2] amounted to 0.0483 ± 0.001 mg/mL (≈ 137 µM). Take `CC(C)c1cccc(C(C)C)c1O` [propofol]: the solubility in data set [3] is 0.112 mg/mL (≈ 628 µM).
